In publication PMC6649662, “A molecular basis of human T cell receptor autoreactivity toward self-phospholipids” (Science immunology, 2017):

Experiments:
CD1b (CD1b-β2m) [1] = biological target: T1, CD1b (CD1b-β2m) (Homo sapiens, UniProt P29016); assay: X-ray crystal structure; conditions: antigen-binding cleft, with scaffold lipids; weak density for head group
T1 construct: soluble, transmembrane-truncated CD1b with β2m; from HEK 293S GnTI- or Trichoplusia ni High Five cells; lipid-loaded and purified; with Beta-2-microglobulin

CD1b (CD1b-β2m) [2] = biological target: T1, CD1b (CD1b-β2m); assay: lipid loading, isoelectric focusing shift and anion exchange purification; type: binding; conditions: loaded in vitro

| Compound | X-ray crystal structure (CD1b (CD1b-β2m) [1]) | lipid loading, isoelectric focusing shift and anion exchange purification (CD1b (CD1b-β2m) [2]) |
| --- | --- | --- |
| CCCCCCCC/C=C\CCCCCCCC(=O)O[C@H](COC(=O)CCCCCCCCCCCCCCC)COP(=O)(O)O [PA, phosphatidic acid] | structures of the PG90 TCR and the CD1b-PS and CD1b- PA complexes |  |
| CCCCCCCC/C=C\CCCCCCCC(=O)O[C@H](COC(=O)CCCCCCCCCCCCCCC)COP(=O)(O)OCCN [PE, phosphatidylethanolamine] |  | phospholipids are loaded into CD1b at high occupancy and purified to homogeneity |
| CCCCCCCC/C=C\CCCCCCCC(=O)O[C@H](COC(=O)CCCCCCCCCCCCCCC)COP(=O)(O)O[C@@H]1[C@H](O)[C@H](O)[C@@H](O)[C@H](O)[C@H]1O [PI, phosphatidylinositol] |  | phospholipids are loaded into CD1b at high occupancy and purified to homogeneity |
| CCCCCCCC/C=C\CCCCCCCC(=O)O[C@H](COC(=O)CCCCCCCCCCCCCCC)COP(=O)(O)OC[C@H](N)C(=O)O [PS, phosphatidylserine] | structures of the PG90 TCR and the CD1b-PS and CD1b- PA complexes |  |
